Data set [1] concerns human Hep G2 cells (ATCC HB-8065). The experiment in a line: Cytotoxicity in Hep G2 cells (CellTiter-Glo). Type of data set: cell-based. The note with it: Hep G2 cells, 100 μM test article, 24-hour exposure. On the technique in general: In ATP-based viability assays light output follows the ATP content of the culture.
Another data set addresses T1, SARS-CoV-2 PLpro (Severe acute respiratory syndrome coronavirus 2, UniProt P0DTD1).
T1 construct: containing 60 nM papain-like protease
Put plainly: biochemical. The note with it: 60 nM papain-like protease, 50 μM Z-RLRGG-AMC, pH 7.5, 37° C.; read-out: SARS-CoV-2 PLpro IC50.

Structures can show the parent of a compound that is named as a salt. Some results are limits rather than exact numbers.

As to `Cc1ccc(N2CCN3CCCC3C2)cc1C(=O)N[C@H](C)c1cccc2ccccc12` (stereo partly drawn) [Example 125, 5-(3,4,6,7,8,8a-Hexahydro-1H-pyrrolo[1,2-a]pyrazin-2-yl)-2-methyl-N-[(1R)-1-(1-naphthyl)ethyl]benzamide hydrochloride salt], the “% Cell Viability” value in data set [1] turned out to be 55.8%. For the same compound, the IC50 (usually the concentration that gives 50% inhibition) on SARS-CoV-2 PLpro was less than 2 µM.

With `COc1ccc([C@@H](C)NC(=O)c2cc(N3CCN(CCO)CC3)ccc2C)cc1OC` [Example 32, N-[(1R)-1-(3,4-Dimethoxyphenyl)ethyl]-5-[4-(2-hydroxyethyl)piperazin-1-yl]-2-methyl-benzamide], the “% Cell Viability” value in data set [1] worked out at 103.5%. In addition, at SARS-CoV-2 PLpro, the IC50 is less than 5 µM.

With `CNC(=O)CCc1cccc([C@@H](C)NC(=O)c2cc(N3CCN(C)CC3)ccc2C)c1` [Example 85, 2-Methyl-N-[(1R)-1-[3-[3-(methylamino)-3-oxo-propyl]phenyl]ethyl]-5-(4-methylpiperazin-1-yl)benzamide], the “% Cell Viability” value in data set [1] was determined as 85.1%. Moreover, on SARS-CoV-2 PLpro, the IC50 is less than 10 µM.

As for `Cc1ccc(N2CCN(C)CC2)cc1C(=O)N[C@H](C)c1cccc(-c2cccc(C(=O)NC[C@H](O)CO)c2)c1` [Example 89], the “% Cell Viability” value in data set [1] amounted to 96.2%. For the same compound, the IC50 at SARS-CoV-2 PLpro was less than 5 µM.

As to `Cc1ccc(N2CCN(C)CC2)cc1C(=O)N[C@H](C)c1cccc(N2CCN(C)CC2)c1` [Example 103, 2-Methyl-5-(4-methylpiperazin-1-yl)-N-[(1R)-1-[3-(4-methylpiperazin-1-yl)phenyl]ethyl]benzamide], the “% Cell Viability” value in data set [1] came out at 91.4%. The IC50 on SARS-CoV-2 PLpro was less than 5 µM.

On to `Cc1ccc(N2CCN(C)C(C)C2)cc1C(=O)N[C@H](C)c1cccc2ccccc12` (stereo partly drawn) [Example 126, 5-(3,4-Dimethylpiperazin-1-yl)-2-methyl-N-[(1R)-1-(1-naphthyl)ethyl]benzamide], for which, in data set [1], the “% Cell Viability” value was 62.8%. The IC50 at SARS-CoV-2 PLpro was less than 2 µM.

For `CC(=O)N1CCN(c2ccc(C)c(C(=O)N[C@H](C)c3cccc4ccccc34)c2)CC1` [Example 109, 5-(4-Acetylpiperazin-1-yl)-2-methyl-N-[(1R)-1-(1-naphthyl)ethyl]benzamide], the “% Cell Viability” value in data set [1] is 72.9%. For the same compound, the half-maximal inhibitory concentration (IC50) on SARS-CoV-2 PLpro was less than 10 µM.

Take `Cc1ccc(N2CCN(C)CC2)cc1C(=O)N[C@H](C)c1cccc(-c2cccc(C(=O)N(C)CCN(C)C)c2)c1` [Example 86, N-[(1R)-1-[3-[3-[2-(Dimethylamino)ethyl-methyl-carbamoyl]phenyl]phenyl]ethyl]-2-methyl-5-(4-methylpiperazin-1-yl)benzamide]: in data set [1], the “% Cell Viability” value is recorded as 72.1%. Besides, the IC50 at SARS-CoV-2 PLpro is less than 2 µM.

As to `Cc1ccc(N2CC3(CN(CCC(=O)O)C3)C2)cc1C(=O)N[C@H](C)c1cccc2ccccc12` [Example 168, 3-[2-[4-Methyl-3-[[(1R)-1-(1-naphthyl)ethyl]carbamoyl]phenyl]-2,6-diazaspiro[3.3]heptan-6-yl]propanoic acid], the “% Cell Viability” value in data set [1] was 111.2%. Further, at SARS-CoV-2 PLpro, the IC50 is less than 5 µM.

Take `Cc1ccc(N2CCN(C)CC2)cc1C(=O)N[C@H](C)c1cccc2ccccc12` [Example 21, 2-Methyl-5-(4-methylpiperazin-1-yl)-N-[(1R)-1-(1-naphthyl)ethyl]benzamide]: the “% Cell Viability” value in data set [1] turned out to be 56.9%. Further, the IC50 at SARS-CoV-2 PLpro was less than 2 µM.

Regarding `Cc1ccc(N2CCCN(CCC(=O)O)CC2)cc1C(=O)N[C@H](C)c1cccc2ccccc12` [Example 163, 3-[4-[4-Methyl-3-[[(1R)-1-(1-naphthyl)ethyl]carbamoyl]phenyl]-1,4-diazepan-1-yl]propanoic acid], the “% Cell Viability” value in data set [1] is on record as 122.4%. For the same compound, at SARS-CoV-2 PLpro, the IC50 was less than 5 µM.

With `Cc1ccc(N2CCN(C)CC2)cc1C(=O)N[C@H](C)c1cccc(C#CCO)c1` [Example 315, N-[(1R)-1-[3-(3-Hydroxyprop-1-ynyl)phenyl]ethyl]-2-methyl-5-(4-methylpiperazin-1-yl)benzamide], the “% Cell Viability” value in data set [1] amounted to 122.7%. Also, at SARS-CoV-2 PLpro, the IC50 is less than 5 µM.

The record behind these values is US20240383852A1, “ANTI-VIRAL COMPOUNDS” (INFEX Therapeutics Limited, priority 2021, published 2024).
